Experimental data: patent EP0872239A2 (ELI LILLY AND COMPANY, priority 1997, dated 1998)

Columns and labels:
[1] = tested on: muscarinic cholinergic receptor; assay: pharmacological studies, muscarinic cholinergic receptor activity; settings: stated in words only
[2] = tested on: cerebral focal stroke; assay: experimental stroke / cerebral ischemia models (Assays 2 and 3); format: in vivo, rats; settings: general statement on "such experiments"; no data given
Experimental: The methodology for testing the compound's effect in ameliorating ischemic cell damage after transient middle cerebral artery occlusion (Zhang, et al., Stroke 26, 1438-43, 1995) is given as one example.
Male rats weighing approximately 300 grams are anesthetized with 3.5% halothane and maintained with 1.0% halothane in 70% N2O and 30% O2 with the use of a face mask. Rectal remperature is maintained at 37°C throughout the surgical procedure. The right femoral artery and vein are cannulated for measuring blood gases before inducing ischemia, monitoring blood pressure during the surgery and administering compound.
Approximately 18 mm of 4-0 surgical nylon suture with a rounded tip is advanced from the external carotid artery into the lumen of the internal carotid artery until it blocks the origin of the middle cerebral artery (MCA). […] Infarct volume is measured blindly with the use of a Global Lab Image analysis program (Data Translation). The infarct area and the ipsilateral and contralateral hemispheric area are calculated in square millimeters by tracing the right and left hemispheres and the ischemic lesion on the computer screen. The volumes in cubic millimeters are determined by multiplying the area by the section interval thickness. Infarct volume is analyzed as a percentage of the whole hemisphere. […]

[3] = target: T1, 5-HT1C receptor (Homo sapiens, UniProt P28335); assay: pharmacological studies, 5-HT1C receptor activity; settings: stated in words only
T1 sequence (P28335 33-458): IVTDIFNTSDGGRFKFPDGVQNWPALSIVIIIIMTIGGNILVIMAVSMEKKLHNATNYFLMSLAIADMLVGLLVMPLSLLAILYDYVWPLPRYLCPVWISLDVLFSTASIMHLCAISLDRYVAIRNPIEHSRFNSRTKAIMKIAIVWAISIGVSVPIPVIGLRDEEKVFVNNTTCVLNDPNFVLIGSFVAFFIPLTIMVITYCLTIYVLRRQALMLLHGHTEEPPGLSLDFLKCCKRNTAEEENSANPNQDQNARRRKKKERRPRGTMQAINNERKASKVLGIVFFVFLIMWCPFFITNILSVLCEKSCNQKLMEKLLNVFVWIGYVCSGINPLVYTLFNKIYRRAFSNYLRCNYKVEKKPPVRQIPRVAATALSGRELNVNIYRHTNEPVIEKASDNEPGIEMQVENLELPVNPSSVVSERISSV

## Cc1cc2c(s1)Nc1ccccc1N=C2N1CCN(C)CC1 [olanzapine, 2-methyl-4-(4-methyl-1-piperazinyl)-10H-thieno [2,3-b] [1,5] benzodiazepine]
[1]
  muscarinic cholinergic receptor activity: has muscarinic cholinergic receptor activity
[2]
  effect in the treatment or inhibition of cerebral focal stroke: significant effect
[3]
  active at the 5-HT1C receptor: active
